# How the values were obtained:
# Type in all cases: in vivo
# Foxtail [1] = test: Postemergent control of plant species
# Experimental: (§1) Representative compositions of the present invention were evaluated for the postemergence control of species of plants listed in Table A. In these evaluations, pots of the plant species listed in Table A, grown to a height of about 10 cms, were used. Aqueous spray compositions, containing various amounts of 2-[4-(2-fluoro-4-trifluoromethylphenoxy)-phenoxy]propionic acid methy ester, i.e., 125 ppm, 62.5 ppm, 31.25 ppm, 15.6 ppm, 7.8 ppm and 3.9 ppm, respectively, were applied to separate pots. The spray compositions were made by mixing the active ingredient in acetone to 1/2 the final volume, i.e., twice the final concentration. An equal amount of water was added to the active ingredient/acetone mixture wherein the water contained 0.1 percent by weight of TWEEN® 200 surfactant. The application to the plants was made to the point of run-off and was carried out with conventional spraying equipment. Other pots were sprayed with similar compositions containing no toxicant to serve as controls. Thereafter, the pots were maintained under conditions conducive for plant growth. Two weeks after treatment, the pots were examined for plant growth and evaluated on a scale of 0 to 100 where 0 represents no effect and 100 represents complete kill. The results of the examination of the treated pots are set forth below in Table A.
# (§2) In further operations employing the above general procedures and the indicated test compounds the following results were obtained: […]
# Crabgrass = test: Postemergent activity
# Experimental: as §1
# (§3) Substantially the same procedures as those described in Example A were repeated except that the active ingredients were 2-[4-(4-chloro-2-fluorophenoxy)phenoxy]propionic acid; methyl ester and its R-enantiomer and 2-(4-(4-bromo-2-fluorophenoxy)phenoxy propionic acid; methyl ester and its R enantiomer. The results are listed below in Table B.
# as §2
# Wild Oats = test: Postemergent activity; conditions: Avena fatua, post-emergence, 336 h; for pest or weed control at 7.8 ppm / pest or weed control at 15.6 ppm / pest or weed control at 62.5 ppm / pest or weed control at 125 ppm / pest or weed control at 250 ppm: read-out: % Control
# Experimental: as §1, §3, §2
# Barnyard Grass = test: Postemergent activity
# Experimental: as §1, §3, §2
# Wheat = test: Postemergent activity; conditions: Triticum aestivum, post-emergence, 336 h, read-out: % Control
# Experimental: as §1, §3, §2
# Foxtail [2] = test: Postemergent control of plant species; conditions: 250 ppm
SMILES,Percent Control (Foxtail [1]; 7.8 ppm) [%],Percent Control (Foxtail [1]; 15.6 ppm) [%],Percent Control (Foxtail [1]; 31.2 ppm) [%],Percent Control (Foxtail [1]; 62.5 ppm) [%],Percent Control (Foxtail [1]; 125 ppm) [%],% Control (Crabgrass; 7.8 ppm) [%],% Control (Crabgrass; 15.6 ppm) [%],% Control (Crabgrass; 31.2 ppm) [%],% Control (Crabgrass; 62.5 ppm) [%],% Control (Crabgrass; 125 ppm) [%],pest or weed control at 7.8 ppm (Wild Oats) [%],pest or weed control at 15.6 ppm (Wild Oats) [%],pest or weed control at 31.2 ppm (Wild Oats) [%],pest or weed control at 62.5 ppm (Wild Oats) [%],pest or weed control at 125 ppm (Wild Oats) [%],pest or weed control at 250 ppm (Wild Oats) [%],% Control (Barnyard Grass; 7.8 ppm) [%],% Control (Barnyard Grass; 15.6 ppm) [%],% Control (Barnyard Grass; 31.2 ppm) [%],% Control (Barnyard Grass; 62.5 ppm) [%],also measured
CC(=O)CC(O)C(C)Oc1ccc(Oc2ccc(Br)cc2F)cc1 (stereo not shown),0,0,0,0,20,0,0,0,95,95,0,0,0,0,0,0,0,0,0,0,% Control (Barnyard Grass; 125 ppm): 0%; % Control (Barnyard Grass; 250 ppm): 0%; plant injury at 7.8 ppm (Wheat): 0%; plant injury at 15.6 ppm (Wheat): 0%; plant injury at 31.2 ppm (Wheat): 0%; plant injury at 62.5 ppm (Wheat): 0%; plant injury at 125 ppm (Wheat): 0%; Percent Control (Foxtail [2]): 25%
C=CC(=O)C(C)Oc1ccc(Oc2ccc(Br)cc2F)cc1 (stereo not shown),0,0,0,0,0,0,0,0,100,98,0,0,0,0,0,0,0,0,0,0,% Control (Crabgrass; 250 ppm): 98%; % Control (Barnyard Grass; 125 ppm): 0%; % Control (Barnyard Grass; 250 ppm): 30%; plant injury at 7.8 ppm (Wheat): 0%; plant injury at 15.6 ppm (Wheat): 0%; plant injury at 31.2 ppm (Wheat): 0%; plant injury at 62.5 ppm (Wheat): 0%; plant injury at 125 ppm (Wheat): 0%; plant injury at 250 ppm (Wheat; 250 ppm): 0%; Percent Control (Foxtail [2]): 100%
CC(=O)C(C(C)=O)C(=O)C(C)Oc1ccc(Oc2ccc(Br)cc2F)cc1 (stereo not shown),0,0,100,100,100,0,70,100,100,100,0,0,0,0,0,50,0,0,0,100,% Control (Crabgrass; 250 ppm): 100%; % Control (Barnyard Grass; 125 ppm): 100%; % Control (Barnyard Grass; 250 ppm): 100%; plant injury at 7.8 ppm (Wheat): 0%; plant injury at 15.6 ppm (Wheat): 0%; plant injury at 31.2 ppm (Wheat): 0%; Percent Control (Foxtail [2]): 100%
